# Tests used:
# [1] = tested on: male Sprague-Dawley rats; experiment: Hot plate test (53 degrees Centigrade), latency to forepaw licking; format: in vivo; settings: for Licking latency: mean ± S.E.M., 10 rats
# Method: The effect of GVG on the analgesic potency of morphine in male Sprague-Dawley rats was examined using the hot plate test. In this paradigm, animals are treated and placed on a hot plate at a temperature of 53 degrees Centigrade and the latency to licking of one of the forepaws was measured. This test is used as screen for agents that have moderate to significant analgesic action as these drugs will increase latency to forepaw licking.
# The rats were treated with either vehicle or GVG 2.5 hours prior to receiving either vehicle or morphine. Animals were given either vehicle or morphine 30 minutes prior to placing them on a hot plate at a constant temperature of 53 degrees Centigrade. Analgesic potency was assessed by measuring the latency to forepaw licking after placement on the hot plate. A total of 10 rats were examined for each treatment group.
# [2] = tested on: extracellular DA concentrations in the nucleus accumbens (NAcc); experiment: In vivo microdialysis: morphine-induced extracellular DA in the nucleus accumbens of freely moving rats; parameters: species or system Sprague-Dawley rats
# From the text: The effects of increased endogenous GABA activity on morphine-induced extracellular DA concentrations in the nucleus accumbens (NAcc) of freely moving rats was explored.
# All animals there used under an IACUC-approved protocol and with strict adherence to the NIH guidelines. Adult male Sprague-Dawley rats (200-300 g, Taconic Farms), housed in the animals care facility under 12:12 light/dark conditions, were placed into 6 groups (n=3-6), anesthetized and siliconized guide cannulae were stereotactically implanted into the right NAcc (2.0 mm anterior and 1.0 mm lateral to bregms, and 7.0 mm ventral to the cortical surface) and prefrontal cortex (PFC) at least 4 days prior to study. Microdialysis probes (2.0 mm, Bioanalytical Systems, BAS, West Lafayette. Ind.) were positioned within the guide cannulae and artificial cerebrospinal fluid (ACSF. 155.0 mM NA^−, 1.1 mM Ca^2−, 2.9 mM K^−, 132.76 mM Cl^−, and 0.83 mM Mg^2−) was administered through the probe using a CMA/100 microinfusion pump (BAS) at a flow rate of 2.0 μl/min.
# Animals were placed in bowls, and probes were inserted and flushed with ACSF overnight. On the day of the study. a minimum of three samples were injected to determine baseline stability. Samples were collected for 20 min. and injected on-line (CMA/160, BAS). The average dopamine concentration of these three stable samples was defined as control (100%). and all subsequent treatment values were transformed to a percentage of that control. Upon establishing a stable baseline, the morphine was administered by intraperitoneal (i.p.) injection. The high performance liquid chromatography (HPLC) system consists of a BAS reverse-phase column (3.0 μC-18), a BAS LC-4C electrochemical transducer with a dual/glassy carbon electrode set at 650 mV, a computer that analyzes data on-line using a commercial software package (Chromograph Bioanalytical Systems), and a dual pen chart recorder. The mobile phase (flow rate 1.0 ml/min) consisted of 7.0% methanol, 50 mM sodium phosphate monobasic, 1.0 mM sodium octyl sulfate, and 0.1 mm […], pH 4.0. DA eluted at 7.5 min.
# Gamma-vinyl GABA (GVG), an irreversible inhibitor of GABA-transaminase, was administered by intraperitoneal injection 2.5 hours prior to morphine (7 mg/kg). In all studies, animals were placed in the microdialysis bowls the night before the experiment and artificial cerebrospinal fluid (ACSF) was perfused through the microdialysis probes at a flow rate of 2.0 μl/min. At the end of each study, animals were sacrificed and their brains were removed and sectioned for probe placement verification
# Levels of extracellular DA were sampled from the NAcc continuously using a stereoaxically implanted probe. Morphine alone increases DA concentrations 50% above baseline in the NAcc (p<0.01, T=3.79).
# [3] = tested on: male Sprague-Dawley rats; experiment: Heroin-induced conditioned place preference (CPP), expression phase; format: in vivo; settings: for Time spent in chambers, Paired / Time spent in chambers, Unpaired: mean ± S.E.M.
# From the text: In all rodent studies, male Sprague-Dawley rats were used (200-225 g. Taconic farms, Germantown, N.Y.). Animals were allowed to acclimate to the animal housing facility for at least 5 days prior to beginning the experiments. Conditioned place preference (CPP) chambers were used as previously described (Lepore et al., 1995), except instead of one chamber being entirely white and the other black, one chamber was entirely light blue with a stainless steel floor and the second chamber was light blue with horizontal black stripes (2.5 cm wide) spaced 3.8 cm apart with a smooth plexiglass floor. In all CPP studies with GVG, the saline volume was (1 ml/kg), and the heroin doses were 1.5 mg/kg. The saline, heroin and GVG were all injected intraperitonealy (i.p.). The conditioning procedure for the acquisition phase consisted of 12 sessions carried out consecutively over 12 days.
# The CPP pairings were: 1) saline/saline 2) saline/heroin 3) GVG/saline 4) saline/heroin and GVG. The animals in each group were randomly assigned to a 2×2 factorial design ,with one factor being the pairing chamber and the other factor being the order of conditioning. The animals that received either saline or heroin were injected and confined to the appropriate compartment for 30 minutes. The GVG injections were given 3 hours before saline or heroin injection and subsequent placement of the animals in the appropriate chamber. This was done as it has been shown that GABA levels reach maximal values 3 to 4 hours following GVG administration.
# On the test day (day 12), neither drugs nor saline were administered and the animal was allowed to move freely between both chambers for fifteen minutes. The amount of time spent in each chamber was recorded using an automated infrared beam electronically coupled to a timer. For the expression phase of CPP to heroin, the animals were habituated and conditioned to heroin as described in the acquisition studies, but no animals in the expression studies were given GVG on conditioning days. On the test day (day 12), the animals being tested in the expression phase, unlike the animals in the acquisition phase, received either saline or GVG 2.5 hours before they were placed in the apparatus and allowed free access to both chambers for 15 minutes.
# [4] = pairing Vehicle/Heroin, GVG 300 mg/kg on test day (2.5 h before test)
# [5] = pairing Vehicle/Vehicle, GVG 300 mg/kg on test day
# [6] = pairing Vehicle/Heroin (heroin 1.5 mg/kg i.p.), vehicle on test day
smiles,measurement,setting,value
"CN1CC[C@]23c4c5ccc(O)c4O[C@H]2[C@@H](O)C=C[C@H]3[C@H]1C5 [Morphine, morphine]",Licking latency,"[1]; pretreatment vehicle 1 ml/kg, treatment morphine 10 mg/kg 30 min before hot plate",27 ± 3.0 s
same,Increase of DA concentrations above baseline in the NAcc,"[2]; morphine alone, 7 mg/kg i.p., baseline = 100%, p<0.01",50%
"C=CC(N)CCC(=O)O (stereo not drawn) [GVG, 4-amino-5-hexanoic acid]",Effect on expression of heroin-induced CPP,[3]; GVG 300 mg/kg on test day,blocked the expression of heroin-induced CPP
same,"Time spent in chambers, Paired",[3]; [4],6.6 ± 0.7 min
same,"Time spent in chambers, Unpaired",[3]; [4],8.4 ± 0.7 min
same,"Time spent in chambers, Paired",[3]; [5],7.4 ± 0.3 min
same,"Time spent in chambers, Unpaired",[3]; [5],7.6 ± 0.3 min
same,Effect of GVG on the analgesic potency of morphine,[1]; GVG 300 mg/kg i.p. 2.5 hrs prior to morphine 10 mg/kg i.p.,does not alter the analgesic potency of morphine
same,Licking latency,"[1]; pretreatment GVG 300 mg/kg (2.5 h before), treatment morphine 10 mg/kg",27 ± 2.9 s
same,Licking latency,"[1]; pretreatment GVG 300 mg/kg (2.5 h before), treatment vehicle 1 ml/kg",17 ± 1.4+ sec
same,Inhibition of the DA response to morphine in the NAcc,[2]; GVG 150 mg/kg i.p. 2.5 hours prior to morphine 7 mg/kg,no significant inhibition
same,Attenuation of the DA response to morphine in the NAcc,"[2]; GVG 300 mg/kg i.p. 2.5 hours prior to morphine 7 mg/kg, p<0.01",62%
same,Attenuation of the DA response to morphine in the NAcc,"[2]; GVG 500 mg/kg i.p. 2.5 hours prior to morphine 7 mg/kg, p<0.001",67%
"CC(=O)Oc1ccc2c3c1O[C@H]1[C@@H](OC(C)=O)C=C[C@H]4[C@@H](C2)N(C)CC[C@@]341 [Heroin, heroin]","Time spent in chambers, Paired",[3]; [6],10.9 ± 0.4 min
same,"Time spent in chambers, Unpaired",[3]; [6],4.1 ± 0.4 min
